Measurements as given in patent US20250367185A1, “TRANSLESION SYNTHESIS POLYMERASE INHIBITORS AND USES THEREOF” (THE UNIVERSITY OF VERMONT AND STATE AGRICULTURAL COLLEGE, priority 2022, published 2025).

Experiments:
[1] = tested on: SARS-COV-2 variants (alpha, beta, gamma, delta, BA.1, BA.2) and USA-WA1/2020; format: cell-based; conditions: 10 μM, 48 hours, A549-ACE2+ cells
[2] = tested on: SARS-COV-2 variants (alpha, beta, gamma, delta, BA.1, BA.2) and USA-WA1/2020; format: cell-based; conditions: 10 μM, 48 hours, A549-ACE2+ cells; remark: listed apart in the source

## CC(C)CC(=O)c1c(Nc2ccc(C(=O)O)cc2Cl)[nH]c2c(Cl)ccc([N+](=O)[O-])c2c1=O [Compound 1, 3-chloro-4-((8-chloro-3-(3-methylbutanoyl)-5-nitro-4-oxo-1,4-dihydroquinolin-2-yl)amino)benzoic acid]
[1]
  percentage of viral nucleocapsid-positive cells: reduces
[2]
  viral mRNA levels: reduces
